# Assay results published in the supplement of paper PMC10307832.
# How the values were obtained:
# Experiment in all cases: relative viability (nuclei count vs DMSO), 5 days (fraction); higher = more cells survive
# NCI-H1975 = test system: NCI-H1975
# Method in brief: (§1)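 Values are medians from duplicate plates. Each reflects relative viability, defined as the nuclei count of treated wells over that of vehicle wells. Lung cancer cell lines in 1536-well plates were pin-tool dosed one day after seeding with one drug alone or with a fixed anchor-drug dose plus five library-drug doses (not always all listed) in √10 steps, then fixed, stained and imaged at 4× after 5 days.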
# NCI-H322M = test system: NCI-H322M
# Method in brief: as §1
# RERF-LC-KJ = test system: RERF-LC-KJ
# Method in brief: as §1
# PC-3 [JPC-3] = test system: PC-3 [JPC-3]
# Method in brief: as §1
# NCI-H1355 = test system: NCI-H1355
# Method in brief: as §1
# NCI-H1563 = test system: NCI-H1563
# Method in brief: as §1
# EKVX = test system: EKVX
# Method in brief: as §1
# LK-2 = test system: LK-2
# Method in brief: as §1
# CAL-12T = test system: CAL-12T
# Method in brief: as §1
# H3255 = test system: H3255
# Method in brief: as §1
# NCI-H1734 = test system: NCI-H1734
# Method in brief: as §1
smiles,measurement,setting,value
COc1cc2nccc(Oc3ccc(NC(=O)Nc4cc(C)on4)c(Cl)c3)c2cc1OC [Tivozanib] + CS(=O)(=O)CCNCc1ccc(-c2ccc3ncnc(Nc4ccc(OCc5cccc(F)c5)c(Cl)c4)c3c2)o1 [Lapatinib] (partner 2 µM),relative viability,NCI-H1975; first compound 0.005 µM,0.792
same,relative viability,NCI-H1975; first compound 0.01581 µM,0.871
same,relative viability,NCI-H1975; first compound 0.05 µM,0.864
same,relative viability,NCI-H1975; first compound 0.1581 µM,0.755
same,relative viability,NCI-H1975; first compound 0.5 µM,0.723
same,relative viability,NCI-H322M; first compound 0.005 µM,0.574
same,relative viability,NCI-H322M; first compound 0.01581 µM,0.649
same,relative viability,NCI-H322M; first compound 0.05 µM,0.615
same,relative viability,NCI-H322M; first compound 0.1581 µM,0.525
same,relative viability,NCI-H322M; first compound 0.5 µM,0.65
same,relative viability,RERF-LC-KJ; first compound 0.005 µM,0.816
same,relative viability,RERF-LC-KJ; first compound 0.01581 µM,0.843
same,relative viability,RERF-LC-KJ; first compound 0.05 µM,0.902
same,relative viability,RERF-LC-KJ; first compound 0.1581 µM,0.819
same,relative viability,RERF-LC-KJ; first compound 0.5 µM,0.834
same,relative viability,PC-3 [JPC-3]; first compound 0.005 µM,0.429
same,relative viability,PC-3 [JPC-3]; first compound 0.01581 µM,0.453
same,relative viability,PC-3 [JPC-3]; first compound 0.05 µM,0.509
same,relative viability,PC-3 [JPC-3]; first compound 0.1581 µM,0.378
same,relative viability,PC-3 [JPC-3]; first compound 0.5 µM,0.433
same,relative viability,NCI-H1355; first compound 0.005 µM,0.894
same,relative viability,NCI-H1355; first compound 0.01581 µM,0.941
same,relative viability,NCI-H1355; first compound 0.05 µM,1
same,relative viability,NCI-H1355; first compound 0.5 µM,0.92
same,relative viability,NCI-H1563; first compound 0.005 µM,0.848
same,relative viability,NCI-H1563; first compound 0.01581 µM,0.985
same,relative viability,NCI-H1563; first compound 0.05 µM,0.938
same,relative viability,NCI-H1563; first compound 0.1581 µM,0.856
same,relative viability,NCI-H1563; first compound 0.5 µM,0.796
same,relative viability,EKVX; first compound 0.005 µM,0.224
same,relative viability,EKVX; first compound 0.01581 µM,0.199
same,relative viability,EKVX; first compound 0.05 µM,0.216
same,relative viability,EKVX; first compound 0.1581 µM,0.182
same,relative viability,EKVX; first compound 0.5 µM,0.192
same,relative viability,LK-2; first compound 0.005 µM,0.951
same,relative viability,LK-2; first compound 0.01581 µM,0.842
same,relative viability,LK-2; first compound 0.05 µM,0.918
same,relative viability,LK-2; first compound 0.1581 µM,0.742
same,relative viability,LK-2; first compound 0.5 µM,0.683
same,relative viability,CAL-12T; first compound 0.005 µM,0.563
same,relative viability,CAL-12T; first compound 0.01581 µM,0.752
same,relative viability,CAL-12T; first compound 0.05 µM,0.666
same,relative viability,CAL-12T; first compound 0.5 µM,0.784
same,relative viability,H3255; first compound 0.005 µM,0.247
same,relative viability,H3255; first compound 0.01581 µM,0.223
same,relative viability,H3255; first compound 0.05 µM,0.23
same,relative viability,H3255; first compound 0.1581 µM,0.232
same,relative viability,H3255; first compound 0.5 µM,0.211
same,relative viability,NCI-H1734; first compound 0.005 µM,1.03
same,relative viability,NCI-H1734; first compound 0.01581 µM,1.05
same,relative viability,NCI-H1734; first compound 0.05 µM,1.17
